Where only a bound is given, the exact number is not on record here.

Mitogen-activated protein kinase kinase kinase kinase 1, sequence (Q92918 whole entry): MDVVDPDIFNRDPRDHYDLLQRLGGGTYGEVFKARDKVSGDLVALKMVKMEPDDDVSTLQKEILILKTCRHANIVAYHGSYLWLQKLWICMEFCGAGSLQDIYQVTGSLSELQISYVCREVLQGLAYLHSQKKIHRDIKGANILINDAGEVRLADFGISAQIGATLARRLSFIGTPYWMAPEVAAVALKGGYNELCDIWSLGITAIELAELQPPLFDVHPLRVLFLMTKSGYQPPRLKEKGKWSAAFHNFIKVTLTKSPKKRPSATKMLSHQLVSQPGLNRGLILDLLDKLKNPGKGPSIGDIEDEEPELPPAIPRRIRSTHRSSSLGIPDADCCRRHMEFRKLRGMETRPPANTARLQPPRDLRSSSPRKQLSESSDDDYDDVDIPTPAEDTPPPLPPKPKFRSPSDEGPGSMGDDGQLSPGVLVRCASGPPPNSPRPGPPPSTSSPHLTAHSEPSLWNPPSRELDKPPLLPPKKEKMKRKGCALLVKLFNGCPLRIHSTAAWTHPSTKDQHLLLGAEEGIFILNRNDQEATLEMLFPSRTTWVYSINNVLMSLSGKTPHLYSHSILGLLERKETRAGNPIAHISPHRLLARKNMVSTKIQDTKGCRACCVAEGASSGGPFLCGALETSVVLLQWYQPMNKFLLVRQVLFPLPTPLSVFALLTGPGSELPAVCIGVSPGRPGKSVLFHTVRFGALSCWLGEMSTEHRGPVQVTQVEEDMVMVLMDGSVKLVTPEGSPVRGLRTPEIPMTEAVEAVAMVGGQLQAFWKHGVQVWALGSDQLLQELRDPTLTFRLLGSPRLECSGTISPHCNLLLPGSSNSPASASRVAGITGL

The target of the test is Mitogen-activated protein kinase kinase kinase kinase 1 (Homo sapiens, UniProt Q92918). In words: Biochemical Enzyme Assay. The protocol:
HPK1 biochemical enzyme assay: HPK1 enzyme inhibition was measured using a microfluidic mobility shift assay. […] Test compounds were titrated in ten point curves (top final assay concentration 3 μM), and preincubated with enzyme/substrate mix for 30 min prior to initiation of the reaction by addition of ATP (1 mM final concentration) and substrate (1 μM final concentration; Carna Biosciences) diluted in assay buffer supplemented by MgCl2 (final assay concentration of 5 mM). Following 60 min incubation at RT, the reaction was terminated by addition of 60 µl/well termination buffer (Carna Biosciences) and signal determination using aCaliper EZ Reader (Perkin Elmer, UK).
`Cn1ccc2c(-c3ncc(Nc4ccc(C5CCOC5)c(CN5CCCC5)n4)c4c3CNC4=O)cccc21` (stereo not given) [US11021481, Compound I-552] came in with a concentration for half-maximal inhibition (IC50) below 100 nM.

On to `CNC1CN(c2cccc(Nc3cnc(-c4ccnc5c4ccn5C)c4c3C(=O)NC4)c2)C1` [US11021481, Compound I-449], for which the IC50 is below 100 nM.

Take `Cc1ccnn2c(-c3ncc(Nc4ccc(C5CCOC5)c(CN(C)C)n4)c4c3CNC4=O)cnc12` (stereo not given) [US11021481, Compound I-539]: the concentration for half-maximal inhibition (IC50) is below 100 nM.

As to `CN1CC(O)(C2CCCN(c3ccc(Nc4ccc(C5=CNC6C=C(F)C=CN56)c5c4C(=O)NC5)nc3)C2)C1` (stereo not given) [US11021481, Compound I-599], the concentration for half-maximal inhibition (IC50) is below 100 nM.

`Cn1ccc2c1N=CNC2c1ccc(Nc2ccc(N3CCC(O)CC3)cn2)c2c1CNC2=O` (stereo not given) [US11021481, Compound I-144]: the 50% inhibitory concentration (IC50) was below 100 nM.

`Cc1ccn2c(-c3ncc(Nc4cccc(C5CCC6CNCC65)n4)c4c3CNC4=O)cnc2c1F` (stereo not given) [US11021481, Compound I-481] gave an IC50 below 100 nM.

Compound `CN(C)Cc1nc(Nc2cnc(-c3cccc4c3ccn4C)c3c2C(=O)NC3)ccc1O[C@@H]1CCOC1` [US11021481, Compound I-805] showed an IC50 below 100 nM.

Regarding `Cc1ccn2c(-c3ncc(Nc4cccc(C5CC[C@@H]6CNC[C@H]56)n4)c4c3CNC4=O)cnc2c1F` (stereo not given in full) [US11021481, Compound I-480], the half-maximal inhibitory concentration (IC50) result was “in the range around 550 nM”.

In turn, `CN1CCN(c2nc(Nc3ccc(-c4cnc5cc(F)ccn45)c4c3C(=O)NC4)cnc2[C@@H]2CCOC2)CC1` [US11021481, Compound I-802] came in with an IC50 below 100 nM.

For `C[C@@H]1CN(c2c(CN(C)C)cc(Nc3ccc(-c4cnc5cc(F)ccn45)c4c3C(=O)NC4)nc2CN(C)C)CCO1` [US11021481, Compound I-541], the 50% inhibitory concentration (IC50) was below 100 nM.

`COCC1(O)CCN(c2ccc(Nc3ccc(-c4ccnc5c4ccn5C)c4c3C(=O)NC4)nc2CN(C)C)CC1` [US11021481, Compound I-851] came in with an IC50 below 100 nM.

Consider `O=C1NCc2c(-c3cnc4ccccn34)ccc(Cc3ccn(C4CCOCC4)n3)c21` [US11021481, Compound I-382], for which the IC50 was above 1000 nM.

In the case of `Cc1ccn2c(-c3ccc(Nc4ccc(C5CCOC5)c(CN(C)C)n4)c4c3CNC4=O)cnc2c1` (stereo not given) [US11021481, Compound I-561], the IC50 is below 100 nM.

Compound `CC(C)(O)[C@@H]1CN(c2ccc(Nc3ccc(-c4cnc5c(C(F)F)cccn45)c4c3C(=O)NC4)nc2)CCO1` [US11021481, Compound I-475] came in with an IC50 below 100 nM.

With `CN1CCN(c2nc(Nc3ccc(-c4cnc5cc(F)ccn45)c4c3C(=O)NC4)cnc2[C@H]2CCOC2)CC1` [US11021481, Compound I-801], the concentration for half-maximal inhibition (IC50) is below 100 nM.

(Values after BindingDB's records for patent US11021481 (Nimbus Saturn, 2021).)
